Measurements: ChEMBL document CHEMBL1201862, “PubChem BioAssay data set” (2004)
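Where inhibition never reached the appropriate level, the endpoint shown equals the highest concentration tested. Otherwise, values were interpolated linearly from a five-concentration, 48-hour dose response in 96-well plates. GI50 is the concentration that inhibits growth by half.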 Calls of active or inactive are those of the source. Cut-off read from the data, not from the text of the source: active = GI50 up to about 1.1 µM and inactive = higher.

Key:
Test in all cases: NCI-60 cell line screen, 48 h
K562 = system: K562
CAKI-1 = system: CAKI-1
SF-295 = system: SF-295
SF-268 = system: SF-268
Hs-578T = system: Hs-578T
OVCAR-3 = system: OVCAR-3
HCT-116 = system: HCT-116
TK-10 = system: TK-10
SNB-19 = system: SNB-19
SK-MEL-2 = system: SK-MEL-2
MCF7 = system: MCF7
T47D = system: T47D
NCI-H226 = system: NCI-H226
SNB-75 = system: SNB-75
BT-549 = system: BT-549
SW-620 = system: SW-620
KM12 = system: KM12
OVCAR-8 = system: OVCAR-8
MDA-MB-231 = system: MDA-MB-231
HL-60 = system: HL-60

Compound	GI50 (K562)	GI50 (CAKI-1)	GI50 (SF-295)	GI50 (SF-268)	GI50 (Hs-578T)	GI50 (OVCAR-3)	GI50 (HCT-116)	GI50 (TK-10)	GI50 (SNB-19)	GI50 (SK-MEL-2)	GI50 (MCF7)	GI50 (T47D)	GI50 (NCI-H226)	GI50 (SNB-75)	GI50 (BT-549)	GI50 (SW-620)	GI50 (KM12)	GI50 (OVCAR-8)	GI50 (MDA-MB-231)	GI50 (HL-60)
CC(=O)c1c2c(cc3c1CC1(C3)Cc3ccc4c(c3C1=O)CCC4)CCC2 (stereo not given)	6.58 µM (inactive)	14.9 µM (inactive)	93.3 µM (inactive)	> 100 µM (inactive)	13.5 µM (inactive)	> 100 µM (inactive)	10.8 µM (inactive)	11.1 µM (inactive)	> 100 µM (inactive)	34.8 µM (inactive)	16.7 µM (inactive)	9.73 µM (inactive)	> 100 µM (inactive)	16.9 µM (inactive)	62.4 µM (inactive)	32.7 µM (inactive)	17.2 µM (inactive)	75.3 µM (inactive)	24.7 µM (inactive)	3.58 µM (inactive)
O=C1/C(=C/c2ccc(O)c(CN3CCCCC3)c2)CCC/C1=C\c1ccc(O)c(CN2CCCCC2)c1	1.99 µM (inactive)	18.8 µM (inactive)	3.25 µM (inactive)	3.52 µM (inactive)	8.24 µM (inactive)	5.12 µM (inactive)	2.4 µM (inactive)	6.17 µM (inactive)	5.04 µM (inactive)	22.1 µM (inactive)	3.26 µM (inactive)	17.5 µM (inactive)	15.5 µM (inactive)	2.27 µM (inactive)	10.4 µM (inactive)	5.52 µM (inactive)	4.12 µM (inactive)	4.48 µM (inactive)	5.69 µM (inactive)	3.48 µM (inactive)
CC12CC3OC(=O)C1COC14OC5(C2C1=O)C(O)(CCC1C4CC(O)C2(O)CC=CC(=O)C12C)C(=O)OC35C (stereo not given)	> 100 µM (inactive)	> 100 µM (inactive)	> 100 µM (inactive)	> 100 µM (inactive)	> 100 µM (inactive)	> 100 µM (inactive)	> 100 µM (inactive)	> 100 µM (inactive)	> 100 µM (inactive)	> 100 µM (inactive)	> 100 µM (inactive)	> 100 µM (inactive)	> 100 µM (inactive)	> 100 µM (inactive)	> 100 µM (inactive)	> 100 µM (inactive)	> 100 µM (inactive)	> 100 µM (inactive)	> 100 µM (inactive)	> 100 µM (inactive)
COC(=O)CCC(=O)NC1=C(NCc2ccccc2)C(=O)c2ccccc2C1=O	33.9 µM (inactive)	26.2 µM (inactive)	26.7 µM (inactive)	39.8 µM (inactive)	> 100 µM (inactive)	3.95 µM (inactive)	30.3 µM (inactive)	45.3 µM (inactive)	21.7 µM (inactive)	18.8 µM (inactive)	17.3 µM (inactive)	34 µM (inactive)	85.1 µM (inactive)	78.2 µM (inactive)	46.7 µM (inactive)	19.9 µM (inactive)	24.8 µM (inactive)	27.7 µM (inactive)	23.4 µM (inactive)	21.8 µM (inactive)
NS(=O)(=O)c1ccc(NC(=O)c2ccc3nc4ccccc4c(Nc4ccc(S(N)(=O)=O)cc4)c3c2)cc1	> 100 µM (inactive)	> 100 µM (inactive)	> 100 µM (inactive)	87.5 µM (inactive)	> 100 µM (inactive)	> 100 µM (inactive)	> 100 µM (inactive)	> 100 µM (inactive)	42.1 µM (inactive)	> 100 µM (inactive)	> 100 µM (inactive)	> 100 µM (inactive)	> 100 µM (inactive)	> 100 µM (inactive)	> 100 µM (inactive)	> 100 µM (inactive)	12.1 µM (inactive)	> 100 µM (inactive)	> 100 µM (inactive)	> 100 µM (inactive)
S=C(N/N=C(/c1ccccc1)c1ccccn1)N(Cc1ccccn1)Cc1ccccn1	< 0.01 µM (active)	0.0822 µM (active)	0.367 µM (active)	0.196 µM (active)	1.41 µM (inactive)	0.183 µM (active)	< 0.01 µM (active)	0.236 µM (active)	0.444 µM (active)	1.28 µM (inactive)	< 0.01 µM (active)	< 0.0177 µM (active)	< 0.0488 µM (active)	0.708 µM (active)	0.207 µM (active)	< 0.0277 µM (active)	0.432 µM (active)	< 0.01 µM (active)	< 0.0121 µM (active)	< 0.0443 µM (active)
C=C(C)C1CC[C@@](C)(O)[C@H](C#N)C1 (stereo not given in full)	> 100 µM (inactive)	> 100 µM (inactive)	> 100 µM (inactive)	> 100 µM (inactive)	> 100 µM (inactive)	> 100 µM (inactive)	> 100 µM (inactive)	> 100 µM (inactive)	> 100 µM (inactive)	> 100 µM (inactive)	> 100 µM (inactive)	> 100 µM (inactive)	> 100 µM (inactive)	44.5 µM (inactive)	> 100 µM (inactive)	> 100 µM (inactive)	> 100 µM (inactive)	> 100 µM (inactive)	> 100 µM (inactive)	> 100 µM (inactive)
CC(C)(C)C1=CC(=C2C=Cc3ccccc3O2)C=C(C(C)(C)C)C1=O	3.94 µM (inactive)	3.07 µM (inactive)	5.33 µM (inactive)	5.55 µM (inactive)	7 µM (inactive)	2.23 µM (inactive)	2.76 µM (inactive)	3.87 µM (inactive)	9.16 µM (inactive)	2.13 µM (inactive)	1.86 µM (inactive)	1.77 µM (inactive)	8.79 µM (inactive)	5.55 µM (inactive)	6.59 µM (inactive)	2.84 µM (inactive)	2.47 µM (inactive)	6.37 µM (inactive)	3.41 µM (inactive)	1.9 µM (inactive)
CC[C@]12C=CCN3CC[C@@]4(c5cc(Br)c(OC)cc5N(C)[C@H]4[C@@](O)(C(=O)NN)[C@@H]1O)[C@@H]32	48.2 µM (inactive)	> 100 µM (inactive)	65.5 µM (inactive)	56.1 µM (inactive)	76.4 µM (inactive)	58.9 µM (inactive)	> 100 µM (inactive)	59.4 µM (inactive)	91.6 µM (inactive)	29.8 µM (inactive)	30.3 µM (inactive)	40.4 µM (inactive)	43 µM (inactive)	18.2 µM (inactive)	36.1 µM (inactive)	> 100 µM (inactive)	> 100 µM (inactive)	46.9 µM (inactive)	70.3 µM (inactive)	37.9 µM (inactive)
O=C1C=CC(=O)C(N(CCO)CCO)=C1.O=C1C=CC2(O)OCCN(CCO)C2=C1	> 100 µM (inactive)	> 100 µM (inactive)	> 100 µM (inactive)	> 100 µM (inactive)	> 100 µM (inactive)	> 100 µM (inactive)	> 100 µM (inactive)	> 100 µM (inactive)	> 100 µM (inactive)	> 100 µM (inactive)	> 100 µM (inactive)	> 100 µM (inactive)	> 100 µM (inactive)	> 100 µM (inactive)	> 100 µM (inactive)	> 100 µM (inactive)	> 100 µM (inactive)	> 100 µM (inactive)	> 100 µM (inactive)	> 100 µM (inactive)
CCOC(=O)C1=C(C)N(Cc2ccc(Cl)cc2Cl)C2(O)C(OC)CC(=O)C3C(=O)N(c4ccccc4)C(=O)C132 (stereo not given)	1.11 µM (active)	6.71 µM (inactive)	4.43 µM (inactive)	2.26 µM (inactive)	9.06 µM (inactive)	1.33 µM (inactive)	1.39 µM (inactive)	10 µM (inactive)	2.53 µM (inactive)	1.28 µM (inactive)	1.91 µM (inactive)	0.244 µM (active)	3.33 µM (inactive)	< 0.01 µM (active)	1.61 µM (inactive)	2.52 µM (inactive)	2.63 µM (inactive)	1.95 µM (inactive)	1.38 µM (inactive)	2.24 µM (inactive)
C[C@]12CC[C@H]3[C@@H](CC=C4C[C@@H](O)CC[C@@]43C)[C@@H]1C[C@H](N1CCOCC1)[C@@H]2O	68.4 µM (inactive)	> 100 µM (inactive)	> 100 µM (inactive)	> 100 µM (inactive)	85.5 µM (inactive)	> 100 µM (inactive)	> 100 µM (inactive)	> 100 µM (inactive)	> 100 µM (inactive)	> 100 µM (inactive)	> 100 µM (inactive)	> 100 µM (inactive)	> 100 µM (inactive)	28.4 µM (inactive)	27.9 µM (inactive)	> 100 µM (inactive)	> 100 µM (inactive)	> 100 µM (inactive)	54.3 µM (inactive)	48.5 µM (inactive)
CCCCCCCCCCOCCOCCOCCOCCCCC(O)CCCCCCCC1=C[C@H](C)OC1=O (stereo not given in full)	4.02 µM (inactive)	14.1 µM (inactive)	9.89 µM (inactive)	10.9 µM (inactive)	14.8 µM (inactive)	16.2 µM (inactive)	9.53 µM (inactive)	10.2 µM (inactive)	13.8 µM (inactive)	12.5 µM (inactive)	5.62 µM (inactive)	8.39 µM (inactive)	10.9 µM (inactive)	11.8 µM (inactive)	0.959 µM (active)	12.1 µM (inactive)	10.6 µM (inactive)	13.4 µM (inactive)	14.1 µM (inactive)	0.863 µM (active)
